Assay results taken from patent US20240280565A1, “EX VIVO HUMAN MODEL INTENDED FOR EVALUATING ALLERGIC OR PSEUDO-ALLERGIC INFLAMMATORY POTENTIAL” (GENOSKIN, priority 2021, published 2024).
Non-standard residues stand in square brackets, D forms with d. Residues, ends and D or L forms follow the SMILES beside them. dPhe(4-Cl) = N[C@H](Cc1ccc(Cl)cc1)C(=O)O; d2Nal = N[C@H](Cc1ccc2ccccc2c1)C(=O)O; dCit = NC(=O)NCCC[C@@H](N)C(=O)O; d3Pal = N[C@H](Cc1cccnc1)C(=O)O

Tested on: skin explant
Assay: Inflammatory potential: cytokine assay in culture medium or matrix of injected skin explant
Assay type: cell-based, human
Details: 100 μL CETROTIDE solution, cetrorelix 0.25 mg/l mL, injected into adipose tissue of explant
Protocol: A CETROTIDE solution of 100 μL with a cetrorelix concentration of 0.25 mg/l mL (luteinizing hormone inhibitor that competes by binding to its receptor) was injected into the adipose tissue of an explant, as described previously, using a syringe and a 12 mm long, 27 G needle. As a negative and positive control, 100 μL of a PBS solution and 100 μL of a concentrated solution of compound 48/80 (50 μg/mL, an MRGPRX2 agonist), respectively, were each injected into the adipose tissue of different explants, as described previously.
The culture medium or matrix supporting the explants are collected and an assay of cytokines is conducted using an ELISA-type methods or any other type of method intended to detect and quantify the presence of cytokines.

Q: Which “Inflammatory potential (cytokines)” value does the source give for CC(=O)N[C@H](Cc1ccc2ccccc2c1)C(=O)N[C@H](Cc1ccc(Cl)cc1)C(=O)N[C@H](Cc1cccnc1)C(=O)N[C@@H](CO)C(=O)N[C@@H](Cc1ccc(O)cc1)C(=O)N[C@H](CCCNC(N)=O)C(=O)N[C@@H](CC(C)C)C(=O)N[C@@H](CCCNC(=N)N)C(=O)N1CCC[C@H]1C(=O)N[C@H](C)C(N)=O [cetrorelix] (Ac-[d2Nal][dPhe(4-Cl)][d3Pal]SY[dCit]LRP[dA]-NH2) here?
A: confirmed the inflammatory potential
